# Patent publication US4761422A, “(2-amino-4-aryl-thiazole-5-yl)ethanols and their derivatives having diuretic activity and methods for preparing the same” (Lusofarmaco Istituto Lusofarmaco d'Italia SpA, priority 1986, dated 1988)
# Experiment: Acute toxicity in rat (DL50)
# Conditions: in vivo, ip
row,Structure (SMILES),LD50 [mg/kg]
1,"Nc1nc(-c2ccc(Cl)cc2)c(CCO)s1 [LR 409, 2-[2-amino-4-(p-chlorophenyl)thiazole-5-yl]ethanol]",280
2,"CCN(CC)c1nc(-c2ccc(Cl)cc2)c(CCO)s1 [LR 440, 2-[2-diethylamino-4-(p-chlorophenyl)thiazole-5-yl]ethanol]",> 1000
3,"CCN(CC)c1nc(-c2ccc(Cl)cc2)c(CCOC(N)=O)s1 [LR 525, 2-[2-diethylamino-4-(p-chlorophenyl)thiazole-5-yl]ethanol carbamate]",> 2000
4,NC(=O)NC(=O)OCCc1sc(N)nc1-c1ccc(Cl)cc1 [LR 856],> 1000
5,"CNc1nc(-c2ccc(Cl)cc2)c(CCO)s1 [LR 861, 2-[2-methylamino-4-(p-chlorophenyl)thiazole-5-yl]ethanol]",750
6,"NC(=O)OCCc1sc(N)nc1-c1ccc(Cl)cc1 [LR 890, 2-[2-amino-4-(p-chlorophenyl)thiazole-5-yl]ethanol carbamate]",> 2000
7,"CNc1nc(-c2ccc(Cl)cc2)c(CCOC(N)=O)s1 [LR 892, 2-[2-methylamino-4-(p-chlorophenyl)thiazole-5-yl]ethanol carbamate]",> 1000
8,"O=C(O)COc1ccc(C(=O)c2cccs2)c(Cl)c1Cl [Thienyl acid, reference compound]",350

# Experiment: Diuretic activity in rat (DA200, dosage causing doubling of the urinary volume), method of Fregnan et al.
# Format: in vivo
# Conditions: po, os
# Description: The diuretic activity has been determined according to the method by G. B. Fregnan et al., Gazzetta Medica Italiana 128, 384 (1969).
# In the Table given hereinbelow the pharmacological data of some of the compounds according to the invention in comparison with thienyl acid are set forth.
# *Dosage causing doubling of the urinary volume
row,Structure (SMILES),ED (doubling of urinary volume) [mg/kg]
1,"Nc1nc(-c2ccc(Cl)cc2)c(CCO)s1 [LR 409, 2-[2-amino-4-(p-chlorophenyl)thiazole-5-yl]ethanol]",30
2,"CCN(CC)c1nc(-c2ccc(Cl)cc2)c(CCO)s1 [LR 440, 2-[2-diethylamino-4-(p-chlorophenyl)thiazole-5-yl]ethanol]",100
3,"CCN(CC)c1nc(-c2ccc(Cl)cc2)c(CCOC(N)=O)s1 [LR 525, 2-[2-diethylamino-4-(p-chlorophenyl)thiazole-5-yl]ethanol carbamate]",3
4,NC(=O)NC(=O)OCCc1sc(N)nc1-c1ccc(Cl)cc1 [LR 856],5
5,"CNc1nc(-c2ccc(Cl)cc2)c(CCO)s1 [LR 861, 2-[2-methylamino-4-(p-chlorophenyl)thiazole-5-yl]ethanol]",100
6,"NC(=O)OCCc1sc(N)nc1-c1ccc(Cl)cc1 [LR 890, 2-[2-amino-4-(p-chlorophenyl)thiazole-5-yl]ethanol carbamate]",3
7,"CNc1nc(-c2ccc(Cl)cc2)c(CCOC(N)=O)s1 [LR 892, 2-[2-methylamino-4-(p-chlorophenyl)thiazole-5-yl]ethanol carbamate]",10
8,"O=C(O)COc1ccc(C(=O)c2cccs2)c(Cl)c1Cl [Thienyl acid, reference compound]",100
